# Test results from patent US7071178B2, “Use of vitamin D-derivatives in the treatment of osteoporosis and related bone disorders, as well as novel vitamin D3-derivatives” (Leo Pharmaceutical Products, Ltd., priority 2000, dated 2006).
# Columns and labels:
# OVX rats [1] = assay: OVX rat model on osteoporosis: urine calcium; assay type: in vivo; parameters: key to Effect on urine calcium vs 1,25D3: <: less effect than the reference dose of 1,25D3 (0.25 ug/kg); <=: less or the same effect as the reference dose of 1,25D3 (0.25 ug/kg); =: same effect as the reference dose of 1,25D3 (0.25 ug/kg); =>: same or better effect as the reference dose of 1,25D3 (0.25 ug/kg); >: better effect than the reference dose of 1,25D3 (0.25 ug/kg); conditions: oral 28 days
# Description: (§1) Pharmacological Methods—OVX Rat Model on Osteoporosis
# (§2) To study bone anabolic properties and the effects of the vitamin D analogues of the present invention in preventing or treating demineralisation of the skeleton in vivo, a 4 weeks OVX rat model was used:
# (§3) An ovariectomized rat model (OVX model), orally dosed for 28 days is useful for screening of vitamin D analogues. In this model ovariectomy produces alterations in the cancellous network identical to those seen in the human skeleton during ageing and the menopause. Besides this the model and the following analyses can be performed under very standardised conditions. 1α,25(OH)2D3 is used as a reference compound.
# (§4) Female Sprague Dawley rats weighing approximately 130 g (40–45 days old) were purchased from MB, Ejby, Denmark. The animals were fed a commercial diet and allowed free access to food and drinking water. The animals were split into groups receiving differential treatment.
# (§5) The animals were anaesthetised and ovariectomized through a dorsal incision.
# (§6) Treatment of OVX animals was started 2 weeks after ovariectomy.
# (§7) The animals were dosed orally for 28 days. The oral dosage was by gavage 0.1 ml/100 g bodyweight. The bodyweight of each animal was recorded every day prior to oral dosing. On day 7, 14, 21 and 28 the animals were housed separately for 24 hours in metabolic cages for collection of urine. Urine was frozen at −20° C. for later calcium measurement.
# (§8) Effect of Compound 145 compared to the reference dose of 1,25(OH)2D3 (1,25D3) (0.25 μg/kg) and compared to the OVX control group (shown in %) are shown in Tables 1 to 4.
# OVX rats [2] = assay: OVX rat model on osteoporosis: boneweight; assay type: in vivo; parameters: key to Anabolic effect on boneweight, Tibia, vs 1,25D3 / Anabolic effect on boneweight, Tibial Meta., vs 1,25D3 / Anabolic effect on boneweight, L4, vs 1,25D3 / Anabolic effect on boneweight, Femur, vs 1,25D3: <: less effect than the reference dose of 1,25D3 (0.25 ug/kg); <=: less or the same effect as the reference dose of 1,25D3 (0.25 ug/kg); =: same effect as the reference dose of 1,25D3 (0.25 ug/kg); =>: same or better effect as the reference dose of 1,25D3 (0.25 ug/kg); >: better effect than the reference dose of 1,25D3 (0.25 ug/kg); conditions: for Anabolic effect on boneweight, Femur, vs 1,25D3 / Anabolic effect on boneweight, Femur, vs Ovx contr / Anabolic effect on boneweight, L4, vs 1,25D3 / Anabolic effect on boneweight, L4, vs Ovx contr / Anabolic effect on boneweight, Tibia, vs 1,25D3 / Anabolic effect on boneweight, Tibia, vs Ovx contr / Anabolic effect on boneweight, Tibial Meta., vs 1,25D3 / Anabolic effect on boneweight, Tibial Meta., vs Ovx contr: oral 28 days
# Description: FIG. 1 is a graphic illustration of the effect on the weight of the lumbal vertebrae, L4, in rats according to the OVX rat model described herein, and wherein the animal groups received treatment according to the scheme below. A statistical analysis is shown below the graphic illustration. Differences between groups were investigated by the Kruskal-Wallis test, including a multiple comparison procedure: ns represents non-significant, nt represents not tested, and * represents p<0.05. Differences were considered significant at a p<0.05. Results are presented in the bar diagram as means+SD.
# The animals were divided into 6 groups: • Group 1: Intact control, dosed Propylene glycol 0.1 ml/kg (Vehicle) • Group 2: OVX rats control, dosed Propylene glycol 0.1 ml/kg (Vehicle) • Group 3: OVX rats, dosed 1α,25(OH)2D3, […], dosed Compound 145, […]
# as §1, §2, §3, §4, §5, §6, §7
# Left and right femur, left and right tibia, lumbal vertebrae 3 and 4 (L3 and L4) were removed and cleaned for all soft- and connecting tissue. Left femur, left and right tibia and L4 were dried in an oven at 50–60° C. for at least 24 hours and immediately hereafter weighed. The bones were burned in an oven at 800° C. for 4 hours, dissolved in 1N HCl, and analysed for calcium content in a Hitachi 911 autoanalyser. Right femur and L3 were kept in 0.9% NaCl and frozen at −20° C. for later biomechanical testing performed by Jesper Skovhus Thomsen and Lis Mosekilde at Aarhus University, measuring various biomechanical parameters.
# as §8
smiles,measurement,setting,value
"C=C1C(=CC=C2CCCC3(C)C2CCC3C(C)CSc2ccc(C(C)(C)O)cc2)CC(O)CC1O [Compound 145, 1(S),3(R)-Dihydroxy-20(R)-(4-((1-hydroxy-1-methyl)ethyl)phenylthiomethyl)-9,10-seco-pregna-5(Z),7(E),10(19)-triene]","Effect on urine calcium vs 1,25D3","OVX rats [1]; 1 μg/kg, MTR/16",No
same,Effect on urine calcium vs Ovx contr,"OVX rats [1]; 1 μg/kg, MTR/16",−23%
same,"Effect on urine calcium vs 1,25D3","OVX rats [1]; 10 μg/kg, MTR/16",<<<
same,Effect on urine calcium vs Ovx contr,"OVX rats [1]; 10 μg/kg, MTR/16",104%
same,"Effect on urine calcium vs 1,25D3","OVX rats [1]; 10 μg/kg, MTR/23",<<<
same,Effect on urine calcium vs Ovx contr,"OVX rats [1]; 10 μg/kg, MTR/23",45%
same,"Effect on urine calcium vs 1,25D3","OVX rats [1]; 25 μg/kg, MTR/27",<<
same,Effect on urine calcium vs Ovx contr,"OVX rats [1]; 25 μg/kg, MTR/27",155%
same,"Effect on urine calcium vs 1,25D3","OVX rats [1]; 50 μg/kg, MTR/23",<=
same,Effect on urine calcium vs Ovx contr,"OVX rats [1]; 50 μg/kg, MTR/23",373%
same,"Effect on urine calcium vs 1,25D3","OVX rats [1]; 50 μg/kg, MTR/27",=
same,Effect on urine calcium vs Ovx contr,"OVX rats [1]; 50 μg/kg, MTR/27",750%
same,"Effect on urine calcium vs 1,25D3","OVX rats [1]; 75 μg/kg, MTR/27",>=
same,Effect on urine calcium vs Ovx contr,"OVX rats [1]; 75 μg/kg, MTR/27",777%
same,"Effect on urine calcium vs 1,25D3","OVX rats [1]; 100 μg/kg, MTR/23",<=
same,Effect on urine calcium vs Ovx contr,"OVX rats [1]; 100 μg/kg, MTR/23",463%
same,"Anabolic effect on boneweight, Femur, vs 1,25D3","OVX rats [2]; 1 μg/kg, MTR/16",<=
same,"Anabolic effect on boneweight, Femur, vs Ovx contr","OVX rats [2]; 1 μg/kg, MTR/16",6%
same,"Anabolic effect on boneweight, L4, vs 1,25D3","OVX rats [2]; 1 μg/kg, MTR/16",<=
same,"Anabolic effect on boneweight, L4, vs Ovx contr","OVX rats [2]; 1 μg/kg, MTR/16",9%
same,"Anabolic effect on boneweight, Tibia, vs 1,25D3","OVX rats [2]; 1 μg/kg, MTR/16",<=
same,"Anabolic effect on boneweight, Tibia, vs Ovx contr","OVX rats [2]; 1 μg/kg, MTR/16",6%
same,"Anabolic effect on boneweight, Tibial Meta., vs 1,25D3","OVX rats [2]; 1 μg/kg, MTR/16",<
same,"Anabolic effect on boneweight, Tibial Meta., vs Ovx contr","OVX rats [2]; 1 μg/kg, MTR/16",6%
same,"Anabolic effect on boneweight, Femur, vs 1,25D3","OVX rats [2]; 10 μg/kg, MTR/16",>
same,"Anabolic effect on boneweight, Femur, vs Ovx contr","OVX rats [2]; 10 μg/kg, MTR/16",10%
same,"Anabolic effect on boneweight, L4, vs 1,25D3","OVX rats [2]; 10 μg/kg, MTR/16",>
same,"Anabolic effect on boneweight, L4, vs Ovx contr","OVX rats [2]; 10 μg/kg, MTR/16",13%
same,"Anabolic effect on boneweight, Tibia, vs 1,25D3","OVX rats [2]; 10 μg/kg, MTR/16",>
same,"Anabolic effect on boneweight, Tibia, vs Ovx contr","OVX rats [2]; 10 μg/kg, MTR/16",8%
same,"Anabolic effect on boneweight, Tibial Meta., vs 1,25D3","OVX rats [2]; 10 μg/kg, MTR/16",>
same,"Anabolic effect on boneweight, Tibial Meta., vs Ovx contr","OVX rats [2]; 10 μg/kg, MTR/16",14%
same,"Anabolic effect on boneweight, Femur, vs 1,25D3","OVX rats [2]; 10 μg/kg, MTR/23",>=
same,"Anabolic effect on boneweight, Femur, vs Ovx contr","OVX rats [2]; 10 μg/kg, MTR/23",5%
same,"Anabolic effect on boneweight, L4, vs 1,25D3","OVX rats [2]; 10 μg/kg, MTR/23",>=
same,"Anabolic effect on boneweight, L4, vs Ovx contr","OVX rats [2]; 10 μg/kg, MTR/23",4%
same,"Anabolic effect on boneweight, Tibia, vs 1,25D3","OVX rats [2]; 10 μg/kg, MTR/23",>=
same,"Anabolic effect on boneweight, Tibia, vs Ovx contr","OVX rats [2]; 10 μg/kg, MTR/23",5%
same,"Anabolic effect on boneweight, Tibial Meta., vs 1,25D3","OVX rats [2]; 10 μg/kg, MTR/23",<
same,"Anabolic effect on boneweight, Tibial Meta., vs Ovx contr","OVX rats [2]; 10 μg/kg, MTR/23",8%
same,"Anabolic effect on boneweight, Femur, vs 1,25D3","OVX rats [2]; 25 μg/kg, MTR/27",>
same,"Anabolic effect on boneweight, Femur, vs Ovx contr","OVX rats [2]; 25 μg/kg, MTR/27",4%
same,"Anabolic effect on boneweight, L4, vs 1,25D3","OVX rats [2]; 25 μg/kg, MTR/27",>
same,"Anabolic effect on boneweight, L4, vs Ovx contr","OVX rats [2]; 25 μg/kg, MTR/27",9%
same,"Anabolic effect on boneweight, Tibia, vs 1,25D3","OVX rats [2]; 25 μg/kg, MTR/27",>
same,"Anabolic effect on boneweight, Tibia, vs Ovx contr","OVX rats [2]; 25 μg/kg, MTR/27",3%
same,"Anabolic effect on boneweight, Tibial Meta., vs 1,25D3","OVX rats [2]; 25 μg/kg, MTR/27",>
same,"Anabolic effect on boneweight, Tibial Meta., vs Ovx contr","OVX rats [2]; 25 μg/kg, MTR/27",−2%
same,"Anabolic effect on boneweight, Femur, vs 1,25D3","OVX rats [2]; 50 μg/kg, MTR/23",>>
same,"Anabolic effect on boneweight, Femur, vs Ovx contr","OVX rats [2]; 50 μg/kg, MTR/23",14%
same,"Anabolic effect on boneweight, L4, vs 1,25D3","OVX rats [2]; 50 μg/kg, MTR/23",>>
same,"Anabolic effect on boneweight, L4, vs Ovx contr","OVX rats [2]; 50 μg/kg, MTR/23",15%
same,"Anabolic effect on boneweight, Tibia, vs 1,25D3","OVX rats [2]; 50 μg/kg, MTR/23",>>
same,"Anabolic effect on boneweight, Tibia, vs Ovx contr","OVX rats [2]; 50 μg/kg, MTR/23",13%
same,"Anabolic effect on boneweight, Tibial Meta., vs 1,25D3","OVX rats [2]; 50 μg/kg, MTR/23",=
same,"Anabolic effect on boneweight, Tibial Meta., vs Ovx contr","OVX rats [2]; 50 μg/kg, MTR/23",22%
same,"Anabolic effect on boneweight, Femur, vs 1,25D3","OVX rats [2]; 50 μg/kg, MTR/27",>
same,"Anabolic effect on boneweight, Femur, vs Ovx contr","OVX rats [2]; 50 μg/kg, MTR/27",6%
same,"Anabolic effect on boneweight, L4, vs 1,25D3","OVX rats [2]; 50 μg/kg, MTR/27",>
same,"Anabolic effect on boneweight, L4, vs Ovx contr","OVX rats [2]; 50 μg/kg, MTR/27",11%
same,"Anabolic effect on boneweight, Tibia, vs 1,25D3","OVX rats [2]; 50 μg/kg, MTR/27",>
same,"Anabolic effect on boneweight, Tibia, vs Ovx contr","OVX rats [2]; 50 μg/kg, MTR/27",4%
same,"Anabolic effect on boneweight, Tibial Meta., vs 1,25D3","OVX rats [2]; 50 μg/kg, MTR/27",>
same,"Anabolic effect on boneweight, Tibial Meta., vs Ovx contr","OVX rats [2]; 50 μg/kg, MTR/27",−1%
same,"Anabolic effect on boneweight, Femur, vs 1,25D3","OVX rats [2]; 75 μg/kg, MTR/27",>
same,"Anabolic effect on boneweight, Femur, vs Ovx contr","OVX rats [2]; 75 μg/kg, MTR/27",8%
same,"Anabolic effect on boneweight, L4, vs 1,25D3","OVX rats [2]; 75 μg/kg, MTR/27",>
same,"Anabolic effect on boneweight, L4, vs Ovx contr","OVX rats [2]; 75 μg/kg, MTR/27",13%
same,"Anabolic effect on boneweight, Tibia, vs 1,25D3","OVX rats [2]; 75 μg/kg, MTR/27",>
same,"Anabolic effect on boneweight, Tibia, vs Ovx contr","OVX rats [2]; 75 μg/kg, MTR/27",7%
same,"Anabolic effect on boneweight, Tibial Meta., vs 1,25D3","OVX rats [2]; 75 μg/kg, MTR/27",>>
same,"Anabolic effect on boneweight, Tibial Meta., vs Ovx contr","OVX rats [2]; 75 μg/kg, MTR/27",9%
same,"Anabolic effect on boneweight, Femur, vs 1,25D3","OVX rats [2]; 100 μg/kg, MTR/23",>
same,"Anabolic effect on boneweight, Femur, vs Ovx contr","OVX rats [2]; 100 μg/kg, MTR/23",9%
same,"Anabolic effect on boneweight, L4, vs 1,25D3","OVX rats [2]; 100 μg/kg, MTR/23",>
same,"Anabolic effect on boneweight, L4, vs Ovx contr","OVX rats [2]; 100 μg/kg, MTR/23",12%
same,"Anabolic effect on boneweight, Tibia, vs 1,25D3","OVX rats [2]; 100 μg/kg, MTR/23",>
same,"Anabolic effect on boneweight, Tibia, vs Ovx contr","OVX rats [2]; 100 μg/kg, MTR/23",7%
same,"Anabolic effect on boneweight, Tibial Meta., vs 1,25D3","OVX rats [2]; 100 μg/kg, MTR/23",=
same,"Anabolic effect on boneweight, Tibial Meta., vs Ovx contr","OVX rats [2]; 100 μg/kg, MTR/23",24%
same,"bone anabolic effects (boneweight, biomechanical strength) compared to 1,25D3","OVX rats [2]; summary of Tables 1 to 4, FIG. 1 and FIG. 2","comparable to or even better than 1,25D3"
